From PMC9737391, “Trifluoromethylcinnamanilide Michael Acceptors for Treatment of Resistant Bacterial Infections” (International Journal of Molecular Sciences, 2022)

Columns and labels:
[1] = Lipophilicity determination by RP-HPLC; type: physicochemical; settings: for log k: RP-HPLC, logarithm of capacity factor k
Experimental: It is evident from the graphs in Figure 1 that the correlation coefficients of the dependences of log k/log D6.5/log D7.4 have a value of r = 0.999 (n = 32), which means that the investigated compounds behave insignificantly differently in aqueous media with different pH. Moreover, lipophilicity was calculated as log P and Clog P using two prediction programs. […] Therefore, only log P values predicted by ACD/Percepta can be used for correlations with experimental values. These matches are shown in the graphs in Figure 2, and according to the correlation coefficient r~0.940 (n = 32), it can be argued that even the predicted lipophilicity values correlate with the experimentally measured ones. However, the largest variations were observed (no difference for series 1, 2) for compounds substituted with 2-Cl, 2-CF3, 2,5-Cl, 4-F, 4-CF3, and 3,5-F, 3,5-Cl. These are mainly substituents capable of forming hydrogen and other types of non-bonding interactions both with the surrounding environment and within the molecule. Overall, series 1 (3-CF3) is less lipophilic than series 2 (4-CF3), but the differences in the experimental data are insignificant. Unsubstituted derivatives 1a/2a are the least lipophilic compounds, while derivatives 1o/2o (3,5-Cl) and 1p/2p (3,5-CF3) are the most lipophilic compounds.
Experimental determination of lipophilicity values (log k, log D6.5, and log D7.4) was performed under the same conditions and on the same device as described by Strharsky et al..

Molecule	log k [1]	melting point [°C]	log D6.5 ([1]; pH 6.5)	log D7.4 ([1]; pH 7.4)
O=C(/C=C/c1cccc(C(F)(F)F)c1)Nc1ccccc1 [1a, (2E)-N-Phenyl-3-[3-(trifluoromethyl)phenyl]prop-2-enamide]	0.5234			
O=C(/C=C/c1cccc(C(F)(F)F)c1)Nc1ccccc1F [1b, (2E)-N-(2-Fluorophenyl)-3-[3-(trifluoromethyl)phenyl]prop-2-enamide]	0.5375	115 to 117		
O=C(/C=C/c1cccc(C(F)(F)F)c1)Nc1ccc(F)cc1 [1d, (2E)-N-(4-Fluorophenyl)-3-[3-(trifluoromethyl)phenyl]prop-2-enamide]	0.5760			
O=C(/C=C/c1cccc(C(F)(F)F)c1)Nc1ccccc1Cl [1e, (2E)-N-(2-Chlorophenyl)-3-[3-(trifluoromethyl)phenyl]prop-2-enamide]	0.6568	118 to 120		
O=C(/C=C/c1cccc(C(F)(F)F)c1)Nc1ccccc1C(F)(F)F [1h, (2E)-N-[2-(Trifluoromethyl)phenyl]-3-[3-(trifluoromethyl)phenyl]prop-2-enamide]	0.5710	111 to 113		
O=C(/C=C/c1cccc(C(F)(F)F)c1)Nc1ccc(F)cc1F [1k, (2E)-N-(2,4-Difluorophenyl)-3-[3-(trifluoromethyl)phenyl]prop-2-enamide]	0.5906	143 to 145		
O=C(/C=C/c1cccc(C(F)(F)F)c1)Nc1cc(F)cc(F)c1 [1l, (2E)-N-(3,5-Difluorophenyl)-3-[3-(trifluoromethyl)phenyl]prop-2-enamide]	0.8186	131 to 133		
O=C(/C=C/c1cccc(C(F)(F)F)c1)Nc1ccc(Cl)cc1Cl [1m, (2E)-N-(2,4-Dichlorophenyl)-3-[3-(trifluoromethyl)phenyl]prop-2-enamide]	0.9782	134 to 136		
O=C(/C=C/c1cccc(C(F)(F)F)c1)Nc1cc(Cl)ccc1Cl [1n, (2E)-N-(2,5-Dichlorophenyl)-3-[3-(trifluoromethyl)phenyl]prop-2-enamide]	0.9612	145 to 147		
O=C(/C=C/c1ccc(C(F)(F)F)cc1)Nc1ccccc1F [2b, (2E)-N-(2-Fluorophenyl)-3-[4-(trifluoromethyl)phenyl]prop-2-enamide]	0.5515	164 to 166		
O=C(/C=C/c1ccc(C(F)(F)F)cc1)Nc1cccc(F)c1 [2c, (2E)-N-(3-Fluorophenyl)-3-[4-(trifluoromethyl)phenyl]prop-2-enamide]	0.6462	146 to 148		
O=C(/C=C/c1ccc(C(F)(F)F)cc1)Nc1ccc(F)cc1 [2d, (2E)-N-(4-Fluorophenyl)-3-[4-(trifluoromethyl)phenyl]prop-2-enamide]	0.5887	149 to 151		
O=C(/C=C/c1ccc(C(F)(F)F)cc1)Nc1ccccc1Cl [2e, (2E)-N-(2-Chlorophenyl)-3-[4-(trifluoromethyl)phenyl]prop-2-enamide]	0.6614	171 to 173		
O=C(/C=C/c1ccc(C(F)(F)F)cc1)Nc1cccc(Cl)c1 [2f, (2E)-N-(3-Chlorophenyl)-3-[4-(trifluoromethyl)phenyl]prop-2-enamide]	0.8095	150 to 152		
O=C(/C=C/c1ccc(C(F)(F)F)cc1)Nc1ccc(Cl)cc1 [2g, (2E)-N-(4-Chlorophenyl)-3-[4-(trifluoromethyl)phenyl]prop-2-enamide]	0.8054	185 to 187		
O=C(/C=C/c1ccc(C(F)(F)F)cc1)Nc1ccccc1C(F)(F)F [2h, (2E)-N-[2-(Trifluoromethyl)phenyl]-3-[4-(trifluoromethyl)phenyl]prop-2-enamide]	0.5798	189 to 191		
(2E)-N-Phenyl-3-[3-(trifluoromethyl)phenyl]prop-2-enamide [2a]	0.5351		0.4751	0.4684
